Tests used:
Experiment in all cases: relative viability (nuclei count vs DMSO), 5 days (fraction); higher = more cells survive
[1] = compound: CN(NC(=O)CC(=O)NN(C)C(=S)c1ccccc1)C(=S)c1ccccc1 [Elesclomol] + Cc1cc(Nc2cc(N3CCN(C)CC3)nc(Sc3ccc(NC(=O)C4CC4)cc3)n2)n[nH]1 [Tozasertib] (partner 0.1 µM)
Method in brief: (§1)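 Relative viability equals treated-well nuclei counts divided by vehicle-well nuclei counts. Counts came from 4× images of lung cancer cell lines grown in 1536-well plates for 5 days after pin-tool dosing on the day after seeding. Dosing used one drug alone or a fixed anchor-drug dose plus five library-drug doses (not always all listed) in √10 steps, and values are medians of duplicate plates.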

[2] = compound: CN(NC(=O)CC(=O)NN(C)C(=S)c1ccccc1)C(=S)c1ccccc1 [Elesclomol] + CCNC(=O)c1noc(-c2cc(C(C)C)c(O)cc2O)c1-c1ccc(CN2CCOCC2)cc1 [Luminespib] (partner 0.01 µM)
Method in brief: as §1

[3] = compound: CN(NC(=O)CC(=O)NN(C)C(=S)c1ccccc1)C(=S)c1ccccc1 [Elesclomol] + N=C(N)NC(=N)NCCc1ccccc1 [Phenformin] (partner 250 µM)
Method in brief: as §1

[4] = compound: CN(NC(=O)CC(=O)NN(C)C(=S)c1ccccc1)C(=S)c1ccccc1 [Elesclomol] + COc1cccc2cc(-c3nc([C@H]4CC[C@H](C(=O)O)CC4)n4ncnc(N)c34)[nH]c12 [OSI-027] (partner 0.5 µM)
Method in brief: as §1

[5] = compound: CN(NC(=O)CC(=O)NN(C)C(=S)c1ccccc1)C(=S)c1ccccc1 [Elesclomol] + COc1cc2c(Oc3ccc(NC(=O)C4(C(=O)Nc5ccc(F)cc5)CC4)cc3F)ccnc2cc1OCCCN1CCOCC1 [Foretinib] (partner 0.25 µM)
Method in brief: as §1

[6] = compound: CN(NC(=O)CC(=O)NN(C)C(=S)c1ccccc1)C(=S)c1ccccc1 [Elesclomol] + Cc1nc(Nc2ncc(C(=O)Nc3c(C)cccc3Cl)s2)cc(N2CCN(CCO)CC2)n1 [Dasatinib] (partner 0.075 µM)
Method in brief: as §1

[7] = compound: CN(NC(=O)CC(=O)NN(C)C(=S)c1ccccc1)C(=S)c1ccccc1 [Elesclomol]
Method in brief: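 Viability here means nuclei in treated wells divided by nuclei in vehicle wells, reported as the median across plates. Only plates with control CV below 25% and at least one doubling passed. Lung cancer cell lines in 1536-well plates were exposed to five √10-spaced library-drug doses for 5 days and counted from 4× Hoechst images in MetaXpress.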

[8] = compound: CN(NC(=O)CC(=O)NN(C)C(=S)c1ccccc1)C(=S)c1ccccc1 [Elesclomol] + O=C(c1cc(Cc2n[nH]c(=O)c3ccccc23)ccc1F)N1CCN(C(=O)C2CC2)CC1 [Olaparib] (partner 8 µM)
Method in brief: as §1

[9] = compound: CN(NC(=O)CC(=O)NN(C)C(=S)c1ccccc1)C(=S)c1ccccc1 [Elesclomol] + Nc1ncn([C@H]2C[C@H](O)[C@@H](CO)O2)c(=O)n1 [Decitabine] (partner 2 µM)
Method in brief: as §1

[10] = compound: CN(NC(=O)CC(=O)NN(C)C(=S)c1ccccc1)C(=S)c1ccccc1 [Elesclomol] + Nc1nc2[nH]cc(CCc3ccc(C(=O)N[C@@H](CCC(=O)O)C(=O)O)cc3)c2c(=O)[nH]1 [Pemetrexed] (partner 0.2 µM)
Method in brief: as §1

[11] = compound: CN(NC(=O)CC(=O)NN(C)C(=S)c1ccccc1)C(=S)c1ccccc1 [Elesclomol] + CC(=O)c1c(C)c2cnc(Nc3ccc(N4CCNCC4)cn3)nc2n(C2CCCC2)c1=O [Palbociclib] (partner 0.5 µM)
Method in brief: as §1

[12] = compound: CN(NC(=O)CC(=O)NN(C)C(=S)c1ccccc1)C(=S)c1ccccc1 [Elesclomol] + O=C(CCCCCCC(=O)Nc1ccccc1)NO [Vorinostat] (partner 1 µM)
Method in brief: as §1

[13] = compound: CN(NC(=O)CC(=O)NN(C)C(=S)c1ccccc1)C(=S)c1ccccc1 [Elesclomol] + NC(=O)Nc1cc(-c2cccc(F)c2)sc1C(=O)N[C@H]1CCCNC1 [AZD7762] (partner 0.2 µM)
Method in brief: as §1

[14] = compound: CN(NC(=O)CC(=O)NN(C)C(=S)c1ccccc1)C(=S)c1ccccc1 [Elesclomol] + CC(=O)Nc1cccc(-n2c(=O)n(C3CC3)c(=O)c3c(Nc4ccc(I)cc4F)n(C)c(=O)c(C)c32)c1 [Trametinib] (partner 0.02 µM)
Method in brief: as §1

## NCI-H1623
[1]; first compound 0.003162 µM
  relative viability: 0.392
[1]; first compound 0.01 µM
  relative viability: 0.417
[1]; first compound 0.03162 µM
  relative viability: 0.35
[1]; first compound 0.1 µM
  relative viability: 0.303
[2]; first compound 0.003162 µM
  relative viability: 0.235
[2]; first compound 0.01 µM
  relative viability: 0.216
[2]; first compound 0.03162 µM
  relative viability: 0.251
[2]; first compound 0.1 µM
  relative viability: 0.217
[3]; first compound 0.003162 µM
  relative viability: 0.624
[3]; first compound 0.01 µM
  relative viability: 0.552
[3]; first compound 0.03162 µM
  relative viability: 0.539
[3]; first compound 0.1 µM
  relative viability: 0.443
[4]; first compound 0.003162 µM
  relative viability: 0.386
[4]; first compound 0.01 µM
  relative viability: 0.353
[4]; first compound 0.03162 µM
  relative viability: 0.347
[4]; first compound 0.1 µM
  relative viability: 0.296
[5]; first compound 0.003162 µM
  relative viability: 0.868
[5]; first compound 0.01 µM
  relative viability: 0.526
[5]; first compound 0.03162 µM
  relative viability: 0.422
[5]; first compound 0.1 µM
  relative viability: 0.422
[6]; first compound 0.003162 µM
  relative viability: 0.499
[6]; first compound 0.01 µM
  relative viability: 0.464
[6]; first compound 0.03162 µM
  relative viability: 0.312
[6]; first compound 0.1 µM
  relative viability: 0.254
[7]; 0.003162 µM
  relative viability: 0.775
[7]; 0.01 µM
  relative viability: 0.462
[7]; 0.03162 µM
  relative viability: 0.37
[7]; 0.1 µM
  relative viability: 0.339

## NCI-H1648
[1]; first compound 0.003162 µM
  relative viability: 0.379
[1]; first compound 0.01 µM
  relative viability: 0.409
[1]; first compound 0.03162 µM
  relative viability: 0.506
[1]; first compound 0.1 µM
  relative viability: 0.54
[8]; first compound 0.003162 µM
  relative viability: 0.675
[8]; first compound 0.01 µM
  relative viability: 0.753
[8]; first compound 0.03162 µM
  relative viability: 0.835
[8]; first compound 0.1 µM
  relative viability: 0.796
[9]; first compound 0.003162 µM
  relative viability: 0.551
[9]; first compound 0.01 µM
  relative viability: 0.469
[9]; first compound 0.03162 µM
  relative viability: 0.509
[9]; first compound 0.1 µM
  relative viability: 0.453
[10]; first compound 0.003162 µM
  relative viability: 0.7
[10]; first compound 0.01 µM
  relative viability: 0.599
[10]; first compound 0.03162 µM
  relative viability: 0.752
[10]; first compound 0.1 µM
  relative viability: 0.673
[11]; first compound 0.003162 µM
  relative viability: 0.301
[11]; first compound 0.01 µM
  relative viability: 0.285
[11]; first compound 0.03162 µM
  relative viability: 0.266
[11]; first compound 0.1 µM
  relative viability: 0.253
[4]; first compound 0.003162 µM
  relative viability: 0.263
[4]; first compound 0.01 µM
  relative viability: 0.276
[4]; first compound 0.03162 µM
  relative viability: 0.224
[4]; first compound 0.1 µM
  relative viability: 0.295
[12]; first compound 0.003162 µM
  relative viability: 0.338
[12]; first compound 0.01 µM
  relative viability: 0.416
[12]; first compound 0.03162 µM
  relative viability: 0.385
[12]; first compound 0.1 µM
  relative viability: 0.313
[13]; first compound 0.003162 µM
  relative viability: 0.581
[13]; first compound 0.01 µM
  relative viability: 0.686
[13]; first compound 0.03162 µM
  relative viability: 0.61
[13]; first compound 0.1 µM
  relative viability: 0.622
[14]; first compound 0.003162 µM
  relative viability: 0.555
[14]; first compound 0.01 µM
  relative viability: 0.415
[14]; first compound 0.03162 µM
  relative viability: 0.46
[14]; first compound 0.1 µM
  relative viability: 0.39
[7]; 0.003162 µM
  relative viability: 0.606
[7]; 0.01 µM
  relative viability: 0.725
[7]; 0.03162 µM
  relative viability: 0.827
[7]; 0.1 µM
  relative viability: 0.76

## NCI-H2342
[1]; first compound 0.003162 µM
  relative viability: 0.466
[1]; first compound 0.01 µM
  relative viability: 0.476
[1]; first compound 0.03162 µM
  relative viability: 0.332
[1]; first compound 0.1 µM
  relative viability: 0.324
[8]; first compound 0.003162 µM
  relative viability: 0.476
[8]; first compound 0.01 µM
  relative viability: 0.37
[8]; first compound 0.03162 µM
  relative viability: 0.434
[8]; first compound 0.1 µM
  relative viability: 0.367
[2]; first compound 0.003162 µM
  relative viability: 0.665
[2]; first compound 0.01 µM
  relative viability: 0.551
[2]; first compound 0.03162 µM
  relative viability: 0.391
[2]; first compound 0.1 µM
  relative viability: 0.322
[9]; first compound 0.003162 µM
  relative viability: 0.697
[9]; first compound 0.01 µM
  relative viability: 0.866
[9]; first compound 0.03162 µM
  relative viability: 0.784
[9]; first compound 0.1 µM
  relative viability: 0.602
[3]; first compound 0.003162 µM
  relative viability: 0.482
[3]; first compound 0.01 µM
  relative viability: 0.596
[3]; first compound 0.03162 µM
  relative viability: 0.355
[3]; first compound 0.1 µM
  relative viability: 0.292
[10]; first compound 0.003162 µM
  relative viability: 0.732
[10]; first compound 0.01 µM
  relative viability: 0.634
[10]; first compound 0.03162 µM
  relative viability: 0.728
[10]; first compound 0.1 µM
  relative viability: 0.705
[11]; first compound 0.003162 µM
  relative viability: 0.495
[11]; first compound 0.01 µM
  relative viability: 0.489
[11]; first compound 0.03162 µM
  relative viability: 0.517
[11]; first compound 0.1 µM
  relative viability: 0.411
[4]; first compound 0.003162 µM
  relative viability: 0.648
[4]; first compound 0.01 µM
  relative viability: 0.583
[4]; first compound 0.03162 µM
  relative viability: 0.395
[4]; first compound 0.1 µM
  relative viability: 0.301
[12]; first compound 0.003162 µM
  relative viability: 0.732
[12]; first compound 0.01 µM
  relative viability: 0.8
[12]; first compound 0.03162 µM
  relative viability: 0.757
[12]; first compound 0.1 µM
  relative viability: 0.771
[13]; first compound 0.003162 µM
  relative viability: 0.385
[13]; first compound 0.01 µM
  relative viability: 0.461
[13]; first compound 0.03162 µM
  relative viability: 0.4
[13]; first compound 0.1 µM
  relative viability: 0.441
[5]; first compound 0.003162 µM
  relative viability: 1.08
[5]; first compound 0.01 µM
  relative viability: 0.915
[5]; first compound 0.03162 µM
  relative viability: 0.437
[5]; first compound 0.1 µM
  relative viability: 0.344
[6]; first compound 0.003162 µM
  relative viability: 0.318
[6]; first compound 0.01 µM
  relative viability: 0.305
[6]; first compound 0.03162 µM
  relative viability: 0.247
[6]; first compound 0.1 µM
  relative viability: 0.267
[14]; first compound 0.003162 µM
  relative viability: 0.877
[14]; first compound 0.01 µM
  relative viability: 0.839
[14]; first compound 0.03162 µM
  relative viability: 0.756
[14]; first compound 0.1 µM
  relative viability: 0.616
[7]; 0.003162 µM
  relative viability: 0.865
[7]; 0.01 µM
  relative viability: 1.02
[7]; 0.03162 µM
  relative viability: 0.571
[7]; 0.1 µM
  relative viability: 0.612
